In patent US5192781A, “Thiazole derivatives which are angiotensin II receptor antagonists, their methods of preparation and pharmaceutical compositions in which they are present” (Laboratoires UPSA, priority 1991, dated 1993):

Tested on: rat adrenal angiotensin II receptors
Experiment: displacement of radioligand [^125 I]-SIAII specifically bound to rat adrenal angiotensin II receptors
Type: binding
Conditions: 60 min at 25° C.
Protocol: The affinity of the products of the Examples for angiotensin II receptors is evaluated by the technique of displacing a radioligand specifically bound to rat adrenal angiotensin II receptors.
An aliquot of a rat adrenal gland homogenate incubates in the presence of a single concentration of [^125 I]-SIAII (Sar^1,Tyr^4,Ile^8 -angiotensin II), which is an angiotensin II receptor antagonist, and two concentrations of competing agents (10^-5 M, 10^-7 M) for 60 min at 25° C.
The reaction is completed by the addition of a buffer, followed by rapid filtration through glasspaper filters. The non-specific binding is determined in the presence of angiotensin II.
The results are expressed, for the concentrations tested, as the percentage displacement of the radioligand specifically bound to the adrenal angiotensin II receptors.

| Compound | % displacement of the labeled ligand (1E-5M competing agent, 10 µM) | % displacement of the labeled ligand (1E-7M competing agent, 0.1 µM) |
| --- | --- | --- |
| CCCCCc1nc(N)sc1Cc1ccc(NC(=O)c2ccccc2S(=O)(=O)O)cc1 [Example 44, 2-[4-(2-Amino-4-pentylthiazol-5-ylmethyl)phenylaminocarbonyl]benzosulfonic acid] | 91% | 44% |
| CCCc1nc(C)sc1Cc1ccc(NC(=O)c2ccccc2S(=O)(=O)O)cc1 [Example 11, 2-[4-(2-methyl-4-propylthiazol-5-ylmethyl)phenylaminocarbonyl]benzosulfonic acid] | 94% | 59% |
| CCCc1nc(CC(=O)OC)sc1Cc1ccc(NC(=O)c2ccccc2S(=O)(=O)O)cc1 [Example 26, 2-[4-(2-methoxycarbonylmethyl-4-propylthiazol-5-ylmethyl)phenylaminocarbonyl]benzosulfonic acid] | 86% | 22% |
| CCCc1nc(NCC(=O)OC)sc1Cc1ccc(NC(=O)c2ccccc2S(=O)(=O)O)cc1 [Example 22, Methyl (4-propyl-5-(4-(2-sulfobenzoylamino)benzyl)thiazol-2-yl)aminoacetate] | 89% | 5% |
| CCCc1nc(COC)sc1Cc1ccc(NC(=O)c2ccccc2S(=O)(=O)O)cc1 [Example 19, 2-[4-(2-Methoxymethyl-4-propylthiazol-5-yl-methyl)phenylaminocarbonyl]benzosulfonic acid] | 89% | 55% |
| CCCc1nc(N)sc1Cc1ccc(NC(=O)c2ccccc2S(=O)(=O)O)cc1 [Example 33, 2-[4-(2-Amino-4-propylthiazol-5-ylmethyl)phenylaminocarbonyl]benzosulfonic acid] | 85% | 27% |
| CCOC(=O)CNc1nc(C)c(Cc2ccc(NC(=O)c3ccccc3C(=O)O)cc2)s1 [Example 7, Ethyl (4-methyl-5-(4-(2-carboxybenzoylamino)benzyl)thiazol-2-yl)aminoacetate] | 35% | 0% |
| CCCc1nc(CNC(=O)OCC)sc1Cc1ccc(NC(=O)c2ccccc2S(=O)(=O)O)cc1 [Example 30, 2-[4-(2-Ethoxycarbonylaminomethyl-4-propylthiazol-5-ylmethyl)phenylaminocarbonyl]benzosulfonic acid] | 84% | 29% |
| CCCc1nc(NC(C)=O)sc1Cc1ccc(NC(=O)c2ccccc2S(=O)(=O)O)cc1 [Example 36, 2-[4-(2-Acetamido-4-propylthiazol-5-yl-methyl)phenylaminocarbonyl]benzosulfonic acid] | 84% | 3% |
| CCCCCc1nc(C)sc1Cc1ccc(NC(=O)c2ccccc2S(=O)(=O)O)cc1 [Example 40, 2-[4-(2-methyl-4-pentylthiazol-5-ylmethyl)phenylaminocarbonyl]benzosulfonic acid] | 88% | 59% |
| Cc1nc(C)c(Cc2ccc(NC(=O)c3ccccc3C(=O)O)cc2)s1 [Example 4, 2-[4-((2,4-Dimethylthiazol-5-yl)methyl)phenylaminocarbonyl]benzoic acid] | 58% | 0% |
| CCCc1nc(N)sc1Cc1ccc(NC(=O)c2c(Cl)ccc(Cl)c2C(=O)O)cc1 [Example 41, 2-[4-(2-Amino-4-propylthiazol-5-ylmethyl)phenylaminocarbonyl]-3,6-dichlorobenzoic acid] | 87% | 9% |
| CCCc1nc(SCCCC(=O)OCC)sc1Cc1ccc(NC(=O)c2ccccc2S(=O)(=O)O)cc1 [Example 15, Ethyl 4-[[4-propyl-5-(4-(2-sulfobenzoylamino)benzyl)thiazol-2-yl]mercapto]butyrate] | 79% | 0% |
